{"source": "patent US9695155B2", "about": "“Herbicidal substituted pyrimidinyloxy benzene compounds” (E. I. DU PONT DE NEMOURS AND COMPANY, priority 2013, dated 2017)", "key": {"large (Lg) crabgrass": {"system": "large (Lg) crabgrass", "experiment": "Test C postemergence", "assay_type": "in vivo, Digitaria sanguinalis", "conditions": "Digitaria sanguinalis, post-emergence", "method_in_brief": "(§1)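 Greenhouse herbicide screen. Pre: seeded loam/sand, sprayed at planting. Post: 1–4 leaf plants (2–18 cm) in peat-based mix. Formulation: solvent mixture + surfactant, non-phytotoxic. Readout: visual % control vs untreated, 13–15 d; dash = not tested.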"}, "barnyardgrass [1]": {"system": "barnyardgrass", "experiment": "Test B flooded paddy test", "assay_type": "in vivo, Echinochloa crus-galli", "conditions": "Echinochloa crus-galli; Flood, 250 g ai/ha; 0 to 100 scale where 0 is no effect and 100 is complete control; read-out: Plant response rating, Barnyardgrass", "method_in_brief": "(§2)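 Visual ratings on a 0 to 100 scale, where 100 means complete control, compared treated plants with controls after 13 to 15 days in a greenhouse. Treatment went into paddy water 3 cm deep over the soil, applied to plants at the 2-leaf stage.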"}, "waterhemp": {"system": "waterhemp", "experiment": "Test C postemergence", "assay_type": "in vivo, Amaranthus rudis", "conditions": "Amaranthus tuberculatus, post-emergence", "method_in_brief": "as §1"}, "pigweed [2]": {"system": "pigweed", "experiment": "Test A preemergence", "assay_type": "in vivo, Amaranthus retroflexus", "conditions": "Amaranthus retroflexus, pre-emergence", "method_in_brief": "(§3)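 Scoring: eye-based comparison with untreated controls, 0 for no effect through 100 for complete control, at about day 10. Treatments: directed soil spray preemergence; foliar spray postemergence on 2–10 cm plants at the one- to two-leaf stage. Medium: loam soil with sand.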"}, "Heteranthera limosa": {"system": "Heteranthera limosa", "experiment": "Test B flooded paddy test", "assay_type": "in vivo", "conditions": "Heteranthera limosa, Flood, 250 g ai/ha; 0 to 100 scale where 0 is no effect and 100 is complete control; read-out: Plant response rating, Ducksalad", "method_in_brief": "as §2"}, "oilseed rape": {"system": "oilseed rape", "experiment": "Test C postemergence", "assay_type": "in vivo, Brassica napus", "conditions": "Brassica napus, post-emergence", "method_in_brief": "as §1"}, "corn": {"system": "corn", "experiment": "Test C postemergence", "assay_type": "in vivo, Zea mays", "conditions": "Zea mays, post-emergence", "method_in_brief": "as §1"}, "velvetleaf": {"system": "velvetleaf", "experiment": "Test A preemergence", "assay_type": "in vivo, Abutilon theophrasti", "method_in_brief": "as §3"}, "morningglory": {"system": "morningglory", "experiment": "Test A postemergence", "assay_type": "in vivo, Ipomoea spp.", "conditions": "Ipomoea, post-emergence, 240 h", "method_in_brief": "as §3"}, "wheat, winter": {"system": "wheat, winter", "experiment": "Test C postemergence", "assay_type": "in vivo, Triticum aestivum", "conditions": "Triticum aestivum, post-emergence", "method_in_brief": "as §1"}, "sedge, umbrella": {"system": "sedge, umbrella", "experiment": "Test B flooded paddy test", "assay_type": "in vivo, Cyperus difformis", "conditions": "Cyperus difformis, Flood, 250 g ai/ha; 0 to 100 scale where 0 is no effect and 100 is complete control; read-out: Plant response rating, Sedge, Umbrella", "method_in_brief": "as §2"}, "johnsongrass": {"system": "johnsongrass", "experiment": "Test C postemergence", "assay_type": "in vivo, Sorghum halepense", "conditions": "Sorghum halepense, post-emergence", "method_in_brief": "as §1"}, "chickweed": {"system": "chickweed", "experiment": "Test C postemergence", "assay_type": "in vivo, Stellaria media", "conditions": "Stellaria media, post-emergence", "method_in_brief": "as §1"}, "barnyardgrass [3]": {"system": "barnyardgrass", "experiment": "Test C postemergence", "assay_type": "in vivo, Echinochloa crus-galli", "conditions": "Echinochloa crus-galli, post-emergence", "method_in_brief": "as §1"}, "pigweed [4]": {"system": "pigweed", "experiment": "Test A postemergence", "assay_type": "in vivo, Amaranthus retroflexus", "conditions": "Amaranthus retroflexus, post-emergence", "method_in_brief": "as §3"}, "[5]": {"conditions": "125 g ai/ha, 0 to 100 scale where 0 is no effect and 100 is complete control, read-out: Plant response rating, Pigweed"}}, "data": [{"smiles": "N#Cc1cccc(Oc2ncc(Cl)cn2)c1-n1cc(Br)cn1", "note": "[Compound 52, 2-(4-bromo-1H-pyrazol-1-yl)-3-[(5-chloro-2-pyrimidinyl)oxy]benzonitrile]", "values": [{"measurement": "pest or weed control at 125 g/ha", "setting": "large (Lg) crabgrass; 125 g ai/ha, postemergence, read-out: Plant response rating (0 to 100), Crabgrass, Large", "result": 20, "unit": "%"}, {"measurement": "pest or weed control at 250 g/ha", "setting": "large (Lg) crabgrass; 250 g ai/ha, postemergence, read-out: Plant response rating (0 to 100), Crabgrass, Large", "result": 40, "unit": "%"}, {"measurement": "pest or weed control at 31 g/ha", "setting": "large (Lg) crabgrass; Postemergence, 31 g ai/ha, scale 0 to 100 (0 no effect, 100 complete control), 13 to 15 days, read-out: Plant response rating, Crabgrass, Large", "result": 5, "unit": "%"}, {"measurement": "pest or weed control at 62 g/ha", "setting": "large (Lg) crabgrass; Postemergence, 62 g ai/ha, scale 0 to 100 (0 no effect, 100 complete control), read-out: Plant response rating, Crabgrass, Large", "result": 15, "unit": "%"}, {"measurement": "pest or weed control at 250 g/ha", "setting": "barnyardgrass [1]", "result": 30, "unit": "%"}, {"measurement": "pest or weed control at 125 g/ha", "setting": "waterhemp; 125 g ai/ha, postemergence, read-out: Plant response rating (0 to 100), Waterhemp", "result": 75, "unit": "%"}, {"measurement": "pest or weed control at 250 g/ha", "setting": "waterhemp; 250 g ai/ha, postemergence, read-out: Plant response rating (0 to 100), Waterhemp", "result": 95, "unit": "%"}, {"measurement": "pest or weed control at 31 g/ha", "setting": "waterhemp; Postemergence, 31 g ai/ha, scale 0 to 100 (0 no effect, 100 complete control), 13 to 15 days, read-out: Plant response rating, Waterhemp", "result": 70, "unit": "%"}, {"measurement": "pest or weed control at 62 g/ha", "setting": "waterhemp; Postemergence, 62 g ai/ha, scale 0 to 100 (0 no effect, 100 complete control), read-out: Plant response rating, Waterhemp", "result": 70, "unit": "%"}, {"measurement": "pest or weed control at 125 g/ha", "setting": "pigweed [2]; [5]", "result": 100, "unit": "%"}, {"measurement": "pest or weed control at 500 g/ha", "setting": "pigweed [2]; 240 h, 500 g ai/ha, 0 to 100 scale, 0 no effect, 100 complete control, approx. 10 days, read-out: Pigweed plant response rating", "result": 100, "unit": "%"}, {"measurement": "pest or weed control at 250 g/ha", "setting": "Heteranthera limosa", "result": 70, "unit": "%"}, {"measurement": "plant injury at 125 g/ha", "setting": "oilseed rape; 125 g ai/ha, postemergence, read-out: Plant response rating (0 to 100), Oilseed Rape", "result": 70, "unit": "%"}, {"measurement": "plant injury at 250 g/ha", "setting": "oilseed rape; 250 g ai/ha, postemergence, read-out: Plant response rating (0 to 100), Oilseed Rape", "result": 85, "unit": "%"}, {"measurement": "plant injury at 31 g/ha", "setting": "oilseed rape; Postemergence, 31 g ai/ha, scale 0 to 100 (0 no effect, 100 complete control), 13 to 15 days, read-out: Plant response rating, Oilseed Rape", "result": 25, "unit": "%"}, {"measurement": "plant injury at 62 g/ha", "setting": "oilseed rape; Postemergence, 62 g ai/ha, scale 0 to 100 (0 no effect, 100 complete control), read-out: Plant response rating, Oilseed Rape", "result": 40, "unit": "%"}, {"measurement": "plant injury at 125 g/ha", "setting": "corn; 125 g ai/ha, postemergence, read-out: Plant response rating (0 to 100), Corn", "result": 10, "unit": "%"}, {"measurement": "plant injury at 250 g/ha", "setting": "corn; 250 g ai/ha, postemergence, read-out: Plant response rating (0 to 100), Corn", "result": 10, "unit": "%"}, {"measurement": "Corn plant response rating (crop injury, 0 = no effect, 100 = complete kill) at 31 g/ha", "setting": "corn; Postemergence, 31 g ai/ha, scale 0 to 100 (0 no effect, 100 complete control), 13 to 15 days", "result": 5, "unit": "%"}, {"measurement": "Corn plant response rating (crop injury, 0 = no effect, 100 = complete kill) at 62 g/ha", "setting": "corn; Postemergence, 62 g ai/ha, scale 0 to 100 (0 no effect, 100 complete control)", "result": 10, "unit": "%"}, {"measurement": "Plant response rating, Velvetleaf", "setting": "velvetleaf; 125 g ai/ha, 0 to 100 scale where 0 is no effect and 100 is complete control", "result": 100}, {"measurement": "pest or weed control at 500 g/ha", "setting": "velvetleaf; Abutilon theophrasti, pre-emergence, 240 h, 500 g ai/ha, 0 to 100 scale, 0 no effect, 100 complete control, approx. 10 days, read-out: Velvetleaf plant response rating", "result": 100, "unit": "%"}, {"measurement": "pest or weed control at 125 g/ha", "setting": "morningglory; 125 g ai/ha, 0 to 100 scale where 0 is no effect and 100 is complete control, read-out: Plant response rating, Morningglory", "result": 100, "unit": "%"}, {"measurement": "pest or weed control at 500 g/ha", "setting": "morningglory; 500 g ai/ha, 0 to 100 scale, 0 no effect, 100 complete control, read-out: Plant response rating Morningglory", "result": 100, "unit": "%"}, {"measurement": "plant injury at 125 g/ha", "setting": "wheat, winter; 125 g ai/ha, postemergence, read-out: Plant response rating (0 to 100), Wheat", "result": 5, "unit": "%"}, {"measurement": "plant injury at 250 g/ha", "setting": "wheat, winter; 250 g ai/ha, postemergence, read-out: Plant response rating (0 to 100), Wheat", "result": 5, "unit": "%"}, {"measurement": "plant injury at 31 g/ha", "setting": "wheat, winter; Postemergence, 31 g ai/ha, scale 0 to 100 (0 no effect, 100 complete control), 13 to 15 days, read-out: Plant response rating, Wheat", "result": 0, "unit": "%"}, {"measurement": "plant injury at 62 g/ha", "setting": "wheat, winter; Postemergence, 62 g ai/ha, scale 0 to 100 (0 no effect, 100 complete control), read-out: Plant response rating, Wheat", "result": 0, "unit": "%"}, {"measurement": "pest or weed control at 250 g/ha", "setting": "sedge, umbrella", "result": 95, "unit": "%"}, {"measurement": "pest or weed control at 125 g/ha", "setting": "johnsongrass; 125 g ai/ha, postemergence, read-out: Plant response rating (0 to 100), Johnsongrass", "result": 5, "unit": "%"}, {"measurement": "pest or weed control at 250 g/ha", "setting": "johnsongrass; 250 g ai/ha, postemergence, read-out: Plant response rating (0 to 100), Johnsongrass", "result": 10, "unit": "%"}, {"measurement": "pest or weed control at 31 g/ha", "setting": "johnsongrass; Postemergence, 31 g ai/ha, scale 0 to 100 (0 no effect, 100 complete control), 13 to 15 days, read-out: Plant response rating, Johnsongrass", "result": 5, "unit": "%"}, {"measurement": "pest or weed control at 62 g/ha", "setting": "johnsongrass; Postemergence, 62 g ai/ha, scale 0 to 100 (0 no effect, 100 complete control), read-out: Plant response rating, Johnsongrass", "result": 5, "unit": "%"}, {"measurement": "pest or weed control at 125 g/ha", "setting": "chickweed; 125 g ai/ha, postemergence, read-out: Plant response rating (0 to 100), Chickweed", "result": 90, "unit": "%"}, {"measurement": "pest or weed control at 250 g/ha", "setting": "chickweed; 250 g ai/ha, postemergence, read-out: Plant response rating (0 to 100), Chickweed", "result": 95, "unit": "%"}, {"measurement": "pest or weed control at 31 g/ha", "setting": "chickweed; Postemergence, 31 g ai/ha, scale 0 to 100 (0 no effect, 100 complete control), 13 to 15 days, read-out: Plant response rating, Chickweed", "result": 40, "unit": "%"}, {"measurement": "pest or weed control at 62 g/ha", "setting": "chickweed; Postemergence, 62 g ai/ha, scale 0 to 100 (0 no effect, 100 complete control), read-out: Plant response rating, Chickweed", "result": 60, "unit": "%"}, {"measurement": "pest or weed control at 125 g/ha", "setting": "barnyardgrass [3]; 125 g ai/ha, postemergence, read-out: Plant response rating (0 to 100), Barnyardgrass", "result": 5, "unit": "%"}, {"measurement": "pest or weed control at 250 g/ha", "setting": "barnyardgrass [3]; 250 g ai/ha, postemergence, read-out: Plant response rating (0 to 100), Barnyardgrass", "result": 10, "unit": "%"}, {"measurement": "pest or weed control at 31 g/ha", "setting": "barnyardgrass [3]; Postemergence, 31 g ai/ha, scale 0 to 100 (0 no effect, 100 complete control), 13 to 15 days, read-out: Plant response rating, Barnyardgrass", "result": 0, "unit": "%"}, {"measurement": "pest or weed control at 62 g/ha", "setting": "barnyardgrass [3]; Postemergence, 62 g ai/ha, scale 0 to 100 (0 no effect, 100 complete control), read-out: Plant response rating, Barnyardgrass", "result": 5, "unit": "%"}, {"measurement": "pest or weed control at 125 g/ha", "setting": "pigweed [4]; [5]", "result": 100, "unit": "%"}, {"measurement": "pest or weed control at 500 g/ha", "setting": "pigweed [4]; 240 h, 500 g ai/ha, 0 to 100 scale, 0 no effect, 100 complete control, read-out: Plant response rating Pigweed", "result": 100, "unit": "%"}]}]}
